Values joined by “and” are separate entries in the source; they are usually repeats but may differ in a detail not shown here. Identical values can stand only once. Blank lines part the entries; values can stand above or below the molecule they belong to.
Legend:
[1] = target: CDK1 (Homo sapiens, UniProt P06493); conditions: cited from earlier work
[2] = test system: GSK-3; conditions: cited from earlier work
[3] = test system: GSK-3; conditions: acting primarily through beta3-adrenoreceptors; similar extent as insulin; Moule et al. 1997; cited from earlier work
[4] = design: species or system human; conditions: in vivo
Procedure: (§1) Twenty-two eligible subjects, six without cognitive impairment and 16 with cognitive impairment, were enrolled and block-randomized within impairment strata to receive 250 mg of VPA or placebo twice daily. Cognitive impairment was defined as performance at least one standard deviation below the mean on two or more neuropsychological tests, or at least two standard deviations below the mean on one neuropsychological test, using normative data previously applied by the Dana cohort (Dana 1996). Subjects were evaluated at 2, 6, and 10 weeks for adverse clinical and laboratory experiences. Neuropsychological evaluations (see Table 3) were performed at screening, week 6, and week 10 along with global assessments of functioning (subject and investigator), the Fatigue Severity Scale, and the Center for Epidemiologic Studies Depression Scale. A neurological examination and CD4+/CD8+ counts were performed at screening and week 10, while plasma HIV viral load was measured at baseline and week 10.
Tolerability was assessed based on the proportion of subjects able to complete the 10-week study at the original dose of study medication. Safety measures included the occurrences of adverse events and abnormal results on laboratory tests. […]

[5] = test system: subjects with HIV-associated cognitive impairment; assay: Neuropsychological evaluations, VPA adjunctive therapy trial; type: in vivo, human
Procedure: as §1
(§2) Tolerability was assessed based on the proportion of subjects able to complete the 10-week study at the original dose of study medication. Safety measures included the occurrences of adverse events and abnormal results on laboratory tests. Measures of efficacy included changes from baseline in: neuropsychological test scores; the Investigator Clinical Global Impression; MRI indices; functioning; and mood. The study was designed to provide approximately 80% power to detect a 45% difference in tolerability (i.e. 95% versus 50%) between the placebo and VPA groups using a one-sided Fisher's exact test at the 5% level of significance.
Changes from baseline were assessed using paired t-tests. Comparisons between treatment arms were based on unequal-variance two-sample t-tests for continuous variables, and Fisher's Exact Tests for categorical variables. Comparisons between treatment arms were adjusted for baseline values using Analysis of Covariance. Primary statistical analyses were performed according to the intention-to-treat principle, using the last-observation-carried-forward imputation strategy for subjects who prematurely dropped out of the study. Secondary analyses excluded such subjects.

[6] = test system: subjects with HIV-associated cognitive impairment; assay: Investigator Clinical Global Impression; conditions: human, in vivo
Procedure: as §2

[7] = test system: HIV; assay: Plasma HIV viral load; type: in vivo; conditions: individual subjects on VPA (three subjects; the first changed antiretroviral therapy); listed as VPA
Procedure: as §1

[8] = impaired participants, n = 9, VPA 250 mg twice daily
[9] = impaired participants, valproic acid minus placebo mean change to week 10, adjusted for baseline, negative = better on valproic acid
[10] = impaired participants, valproic acid minus placebo mean change to week 10, adjusted for baseline, positive = better on valproic acid

CDK1, sequence (P06493 whole entry, species assumed): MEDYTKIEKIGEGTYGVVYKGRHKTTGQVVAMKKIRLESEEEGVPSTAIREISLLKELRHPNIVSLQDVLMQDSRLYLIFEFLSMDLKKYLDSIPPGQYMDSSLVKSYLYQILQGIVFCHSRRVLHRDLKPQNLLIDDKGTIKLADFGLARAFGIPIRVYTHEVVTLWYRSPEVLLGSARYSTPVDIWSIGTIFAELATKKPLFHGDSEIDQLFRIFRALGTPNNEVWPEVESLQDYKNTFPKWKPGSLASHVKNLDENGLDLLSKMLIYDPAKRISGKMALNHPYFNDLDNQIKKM
CDK1, sequence (P14635 whole entry partner, species assumed): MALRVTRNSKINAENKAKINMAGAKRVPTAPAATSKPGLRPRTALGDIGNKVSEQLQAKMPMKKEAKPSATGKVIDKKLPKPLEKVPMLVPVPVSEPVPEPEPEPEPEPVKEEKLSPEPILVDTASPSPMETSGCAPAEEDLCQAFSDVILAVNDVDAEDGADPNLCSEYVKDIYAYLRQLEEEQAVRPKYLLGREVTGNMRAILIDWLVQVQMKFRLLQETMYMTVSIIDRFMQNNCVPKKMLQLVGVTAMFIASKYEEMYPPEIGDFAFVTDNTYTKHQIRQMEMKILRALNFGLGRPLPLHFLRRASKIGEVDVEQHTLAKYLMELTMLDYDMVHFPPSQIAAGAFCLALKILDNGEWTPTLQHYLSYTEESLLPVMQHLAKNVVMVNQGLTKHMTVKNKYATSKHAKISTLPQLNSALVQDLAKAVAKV

Molecule: [Be+2] [Beryllium]
- IC50 [1]: 50 µM
- IC50 ([2]; read-out: Inhibition potency IC50): 6 µM

Molecule: CC(C)NCC(O)c1ccc(O)c(O)c1 (centres unmarked) [Isoproterenol]
- Decrease of GSK-3 activity [3]: approximately 50%

- Increase in liver function tests [4]: < 2.5 times the upper limit of normal
Molecule: CCCC(CCC)C(=O)O [Valproic Acid, Valproic acid]
- Adverse experience [4]: mild new onset of acid reflux
- Composite Neuropsychological Z-score, mean change from baseline to week 10 [5, 8]: 4.56
- Digit Symbol, mean change from baseline to week 10 [5, 8]: 6.56
- Grooved Pegboard Dominant Hand, mean change from baseline to week 10 [5, 8]: -9.33 s
- Grooved Pegboard Nondominant Hand, mean change from baseline to week 10 [5, 8]: -6.44 s
- Mean Reaction Time Choice, mean change from baseline to week 10 [5, 8]: -43.38 ms
- Mean Reaction Time Sequential, mean change from baseline to week 10 [5, 8]: -8.63 ms
- Rey Auditory Verbal Memory Correct Recognition, mean change from baseline to week 10 [5, 8]: 0.11
- Rey Auditory Verbal Memory Delayed Recall, mean change from baseline to week 10 [5, 8]: 1.11
- Rey Auditory Verbal Memory Recall after Interference, mean change from baseline to week 10 [5, 8]: −0.22
- Rey Auditory Verbal Memory Trial 5, mean change from baseline to week 10 [5, 8]: 0.78
- Timed Gait, mean change from baseline to week 10 [5, 8]: -0.65 s
- Grooved Pegboard Dominant Hand, Treatment Effect [5, 9]: -10.56 s
- Grooved Pegboard Nondominant Hand, Treatment Effect [5, 9]: -4.53 s
- Mean Reaction Time Choice, Treatment Effect [5, 9]: 5.67 ms
- Mean Reaction Time Sequential, Treatment Effect [5, 9]: 29.08 ms
- Timed Gait, Treatment Effect [5, 9]: -0.25 s
- Composite Neuropsychological Z-score, Treatment Effect [5, 10]: 2.31
- Digit Symbol, Treatment Effect [5, 10]: 5.02
- Rey Auditory Verbal Memory Correct Recognition, Treatment Effect [5, 10]: 1.16
- Rey Auditory Verbal Memory Delayed Recall, Treatment Effect [5, 10]: 1.82
- Rey Auditory Verbal Memory Recall after Interference, Treatment Effect [5, 10]: 1.57
- Rey Auditory Verbal Memory Total, Treatment Effect [5, 10]: 2.22
- Rey Auditory Verbal Memory Trial 5, Treatment Effect [5, 10]: −0.38
- Between group differences on independent neuropsychological tests and composite z-score ([5]; impaired subjects, VPA vs placebo): not statistically significant
- Investigator clinical global impression, placebo vs VPA group [6]: No significant difference
- Change in plasma HIV RNA from baseline to week 10 [7]: 33,300 to 316 copies/ml and 100,000 to 93,900 copies/ml and 32,500 to 24,700 copies/ml

Molecule: GRPRTTS*FAE [Pseudosubstrate peptide]
- Ki ([2]; read-out: Inhibition potency Ki): 700 µM
